Reference: patent US20130171278A1 (priority 2010, published 2013)

What was measured:
[1] = tested on: scopolamine-induced memory deficit rat model; experiment: Passive avoidance test in scopolamine-induced memory deficit model; type: in vivo; conditions: 24 hrs after shock
Description: (§1) Ethology test such as passive avoidance test and radial maze test were performed for Artemisia apiaceae. In the case of passive avoidance test, the control group, the scopolamine-treated group (3 mg/kg, i.p.), the tacrine-treated group after scopolamine treatment (10 mg/kg p.o.) and the Artemisia apiaceae extract-treated group were shocked. After 24 hrs, entering time to dark chamber (step-through latency, STL) was measured. […] Furthermore, in order to verify enhancement in more specific learning ability, acquisition test in which an error frequency is measured was performed using 8-arm radial maze.

scopolamine-treated rat = experiment: 8-arm radial maze acquisition test in scopolamine-treated animals; type: in vivo
Description: as §1

| Structure (SMILES) | entering time into the dark chamber (step-through latency, STL) ([1]; scopolamine 3 mg/kg i.p., compared with the control group) | entering time into the dark chamber (step-through latency, STL) ([1]; tacrine 10 mg/kg p.o. after scopolamine treatment) | error frequency compared with the scopolamine-treated group (scopolamine-treated rat) | error frequency (scopolamine-treated rat; normal group 1.6, negative control group 3.25) |
| --- | --- | --- | --- | --- |
| CN1[C@@H]2C[C@@H](OC(=O)[C@H](CO)c3ccccc3)C[C@H]1[C@@H]1O[C@@H]12 [scopolamine] | significantly decreased entering time into the dark chamber | – | – | – |
| Nc1c2c(nc3ccccc13)CCCC2 [tacrine] | – | significantly increased entering time into the dark chamber | significantly decreased error frequency | 1.75 |
